Consider eleven compounds from patent US10638755B2, “Antimicrobial compositions” (Symrise AG, priority 2013, dated 2020).

Structures are written as SMILES. Where two headings read alike, the source gives them in different places.

As a reminder, the MIC is the lowest concentration found to suppress growth.

One test deals with Pseudomonas aeruginosa. Nature of the test: Minimum inhibitory concentration (MIC) according to DIN 58940 and Kull Synergy Index. It counts as cell-based. The settings on record: for MIC: Pseudomonas aeruginosa.
The test system of another test is Staphylococcus aureus. The test is described as above. The test is classed as cell-based. The conditions noted are these: for MIC: Staphylococcus aureus.
The next test relates to Aspergillus brasiliensis. Described as above. The test is classed as cell-based. The conditions noted are these: for MIC: Aspergillus brasiliensis.
The test system of the next test is Candida albicans. Described as above. The conditions noted are these: for MIC: Candida albicans. It counts as cell-based.
A further test concerns Escherichia coli. The description is as above. The test is classed as cell-based. The settings on record: for MIC: Escherichia coli.
The subject of another test is A. brasiliensis. Nature of the test: Colony counts in formulation over 28 days and Kull Synergy Index against A. brasiliensis. The test is classed as cell-based, Aspergillus brasiliensis. The text has this: To calculate the synergism between compounds of formula (I) and other antimicrobial actives, the Kull equation^1 2 was used SI=(Cmixture×PA)/CA+(Cmixture×PB)/CB (I) where • SI is the Synergy Index according to Kull^1), 2) • CA is the cell count for substance A • CB is the cell count for substance B • Cmixture is the cell count for the mixture of substances A and B • PA is the proportion of the substance A in the mixture • PB is the proportion of the substance B in the mixture.
Colony counts of <100 were arbitrarily set to 100, in order to allow for synergy calculations with the above equation. The abbreviation “n.a.” means not applicable.

The subject of another test is mold. The conditions noted are these: moist alfalfa hay; Agronomy Journal 1955; cited from earlier work.
Test [1] relates to subcuteaneous inflammation. The conditions noted are these: administered intraperitoneally; Il Farmaco 2000; cited from earlier work.
The conditions of test [2]: chemical in vitro assay; constituents of Tagetes mendocina; cited from earlier work.
[3] abbreviates: day 0, 1.0% (total) in formulation.
The mark [4] stands for this setting: day 2, 1.0% (total) in formulation.
The mark [5] stands for this setting: day 7, 1.0% (total) in formulation.
Where [6] appears, read: day 14, 1.0% (total) in formulation.
Setting [7] is: day 28, 1.0% (total) in formulation.

For `CCCCCCCOCC(O)CO` (stereo not drawn) [Heptylglycerin], the “MIC values Pseudomonas aeruginosa” value in the test with Pseudomonas aeruginosa (DIN 58940) is 5000 ppm. For the same compound, the “MIC values Staphylococcus aureus” value with Staphylococcus aureus (DIN 58940) came to 2500 ppm. For the same compound, the “MIC values Aspergillus brasiliensis” value in the test with Aspergillus brasiliensis (DIN 58940) is given as 1000 ppm. For the same compound, the “MIC values Candida albicans” value in the test with Candida albicans (DIN 58940) stood at 2000 ppm. Moreover, the “MIC values Escherichia coli” value in the test on Escherichia coli (DIN 58940) was 2000 ppm.

With `OCC(O)COCc1ccccc1` (stereo not drawn) [Benzylglycerin], the “MIC values Pseudomonas aeruginosa” value with Pseudomonas aeruginosa (DIN 58940) came to 20000 ppm. In addition, in the test on Staphylococcus aureus (DIN 58940), the “MIC values Staphylococcus aureus” value was 20000 ppm. Besides, the “MIC values Aspergillus brasiliensis” value in the test on Aspergillus brasiliensis (DIN 58940) came out at 20000 ppm. For the same compound, in the test on Candida albicans (DIN 58940), the “MIC values Candida albicans” value was 20000 ppm. Moreover, in the test with Escherichia coli (DIN 58940), the “MIC values Escherichia coli” value is listed as 10000 ppm.

Turning to `CCCCCCCCOCC(O)CO` (stereo not drawn) [Octylglycerin], the “MIC values Pseudomonas aeruginosa” value in the test with Pseudomonas aeruginosa (DIN 58940) is greater than 2000 ppm. For the same compound, in the test with Staphylococcus aureus (DIN 58940), the “MIC values Staphylococcus aureus” value was 1000 ppm. Besides, the “MIC values Aspergillus brasiliensis” value with Aspergillus brasiliensis (DIN 58940) is reported as 500 ppm. Moreover, in the test on Candida albicans (DIN 58940), the “MIC values Candida albicans” value came to 1000 ppm. Also, in the test on Escherichia coli (DIN 58940), the “MIC values Escherichia coli” value is 1000 ppm.

Regarding `CCCCCCCOCC(O)CO` (stereo not drawn) [3HOPD, 3-heptyloxy-1,2-propanediol], the Colony counts with A. brasiliensis (setting [3]) was found to be 220.000 cfu/g formulation; in the test on A. brasiliensis (setting [4]), 320.000 cfu/g formulation; with A. brasiliensis (setting [5]), 340.000 cfu/g formulation; with A. brasiliensis (setting [6]), 300.000 cfu/g formulation; in the test with A. brasiliensis (setting [7]), 170.000 cfu/g formulation. The Relative colony counts in the test with A. brasiliensis (setting [3]) was 1.0000; in the test on A. brasiliensis (setting [4]) it was 1.4545; in the test with A. brasiliensis (setting [5]), 1.5455; in the test with A. brasiliensis (setting [6]), 1.3636; in the test with A. brasiliensis (setting [7]), 0.7727.

With `CCCCC(O)CO` (stereo not drawn) [HD, 1,2-Hexanediol], the MIC in the test with Pseudomonas aeruginosa (DIN 58940) was 10000 µg/mL; with Staphylococcus aureus (DIN 58940), 20000 µg/mL; in the test on Aspergillus brasiliensis (DIN 58940), 10000 µg/mL; in the test with Candida albicans (DIN 58940) it was 20000 µg/mL; with Escherichia coli (DIN 58940), 10000 µg/mL. Further, the Colony counts in the test with A. brasiliensis (day 0, 3.0% in formulation) is on record as 305.000 cfu/g formulation; in the test on A. brasiliensis (day 2, 3.0% in formulation) it was 306.000 cfu/g formulation; in the test with A. brasiliensis (day 7, 3.0% in formulation), 266.000 cfu/g formulation; in the test with A. brasiliensis (day 14, 3.0% in formulation), 96.000 cfu/g formulation; in the test on A. brasiliensis (day 28, 3.0% in formulation), less than 100 cfu/g formulation. Besides, the Relative colony counts amounted to 1.0000 with A. brasiliensis (day 0, 3.0% in formulation); 1.0033 in the test on A. brasiliensis (day 2, 3.0% in formulation); 0.8721 with A. brasiliensis (day 7, 3.0% in formulation); 0.3148 in the test with A. brasiliensis (day 14, 3.0% in formulation); 0.0003 with A. brasiliensis (day 28, 3.0% in formulation).

Turning to `CCCCCCOC[C@@H](O)CO` [Hexylglycerin], the “MIC values Pseudomonas aeruginosa” value with Pseudomonas aeruginosa (DIN 58940) was determined as 6000 ppm. For the same compound, the “MIC values Staphylococcus aureus” value in the test on Staphylococcus aureus (DIN 58940) turned out to be 6000 ppm. In addition, the “MIC values Aspergillus brasiliensis” value in the test with Aspergillus brasiliensis (DIN 58940) worked out at 4000 ppm. Further, the “MIC values Candida albicans” value in the test on Candida albicans (DIN 58940) is listed as 6000 ppm. Besides, the “MIC values Escherichia coli” value in the test with Escherichia coli (DIN 58940) was determined as 4000 ppm.

In the case of `CCCCCCC(O)CO` (stereo not drawn) [1,2-Octanediol], the MIC is 5000 µg/mL in the test with Pseudomonas aeruginosa (DIN 58940); 5000 µg/mL in the test on Staphylococcus aureus (DIN 58940); 1000 µg/mL in the test on Aspergillus brasiliensis (DIN 58940); 5000 µg/mL in the test on Candida albicans (DIN 58940); 2500 µg/mL with Escherichia coli (DIN 58940).

For `CCCCC(CC)COCC(O)CO` (stereo not drawn) [EHG, ethylhexyl glycerin], in the test with Pseudomonas aeruginosa, the “MIC values Pseudomonas aeruginosa” value is greater than 20000 ppm. In addition, the “MIC values Staphylococcus aureus” value in the test with Staphylococcus aureus was determined as 2000 ppm. Moreover, the Colony counts in the test with A. brasiliensis (setting [3]) worked out at 315.000 cfu/g formulation; in the test on A. brasiliensis (setting [4]), 159.000 cfu/g formulation; in the test on A. brasiliensis (setting [5]), 150.000 cfu/g formulation; in the test with A. brasiliensis (setting [6]), 304.000 cfu/g formulation; with A. brasiliensis (setting [7]) it was 304.000 cfu/g formulation. In addition, the Relative colony counts in the test with A. brasiliensis (setting [3]) worked out at 0.5048; in the test on A. brasiliensis (setting [4]), 0.4762; with A. brasiliensis (setting [5]), 0.9635; in the test on A. brasiliensis (setting [6]), 0.9635; in the test on A. brasiliensis (setting [7]) it was 0.5048. For the same compound, the “MIC values Aspergillus brasiliensis” value in the test with Aspergillus brasiliensis is 2000 ppm. In addition, the “MIC values Candida albicans” value in the test on Candida albicans turned out to be 2000 ppm. In addition, the “MIC values Escherichia coli” value in the test with Escherichia coli came out at 2500 ppm.

Turning to `OCCCO` [1,3-Propanediol], the “MIC values Pseudomonas aeruginosa” value in the test with Pseudomonas aeruginosa (DIN 58940) came out at 100000 ppm. In addition, the “MIC values Staphylococcus aureus” value in the test on Staphylococcus aureus (DIN 58940) was 125000 ppm. Also, in the test on Aspergillus brasiliensis (DIN 58940), the “MIC values Aspergillus brasiliensis” value worked out at 150000 ppm. The “MIC values Candida albicans” value with Candida albicans (DIN 58940) was 100000 ppm. Further, the “MIC values Escherichia coli” value in the test on Escherichia coli (DIN 58940) was 100000 ppm.

`OCCCc1ccccc1` [3-Phenylpropanol]: the MIC in the test on Pseudomonas aeruginosa (DIN 58940) stood at 2000 µg/mL; with Staphylococcus aureus (DIN 58940), 2000 µg/mL; in the test with Aspergillus brasiliensis (DIN 58940), 2000 µg/mL; in the test with Candida albicans (DIN 58940), 5000 µg/mL; in the test with Escherichia coli (DIN 58940) it was 2000 µg/mL.

With `CC(=O)c1ccc(O)cc1` [4HAP, 4-hydroxyacetophenone], the MIC in the test with Pseudomonas aeruginosa (DIN 58940) was 4000 µg/mL; in the test on Staphylococcus aureus (DIN 58940), 6000 µg/mL; in the test on Aspergillus brasiliensis (DIN 58940) it was 4000 µg/mL; in the test on Candida albicans (DIN 58940), 6000 µg/mL; with Escherichia coli (DIN 58940), 4000 µg/mL. Further, in the test on mold, the “prevention of mold growth” value was “not prevent mold growth”. Further, the Colony counts was 300.000 cfu/g formulation in the test on A. brasiliensis (setting [3]); 56.000 cfu/g formulation in the test on A. brasiliensis (setting [4]); 1.900 cfu/g formulation in the test with A. brasiliensis (setting [5]); 1.900 cfu/g formulation in the test on A. brasiliensis (setting [6]); less than 100 cfu/g formulation in the test with A. brasiliensis (setting [7]). The Relative colony counts in the test with A. brasiliensis (setting [3]) stood at 1.0000; in the test on A. brasiliensis (setting [4]) it was 0.1867; in the test with A. brasiliensis (setting [5]), 0.0063; with A. brasiliensis (setting [6]) it was 0.0063; in the test on A. brasiliensis (setting [7]), 0.0003. For the same compound, the anti-inflammatory activity result in [1] is “reducing subcuteaneous inflammation”. The antioxidant activity entry in [2] is reported as “one of the active constituents”.
